Source: patent US20260257998A1, “ERR MODULATORS” (University of Health Sciences and Pharmacy in St. Louis, priority 2023, published 2026)

Tests used:
ERRγ = molecular target: T1, ERRγ (Homo sapiens, UniProt P62508); assay: ERRE luciferase reporter assay in HEK293 cells transfected with pcDNA3.1 ERRγ; format: cell-based; design: key to EC50 (ERRγ): ***<1 μM; **1-5 μM; *>5 μM; i.a. (inactive); details: 24 hours treatment, luciferase activity
T1 construct: expressed in transfected cells; host or cells: HEK293
T1 sequence (P62508 1-458): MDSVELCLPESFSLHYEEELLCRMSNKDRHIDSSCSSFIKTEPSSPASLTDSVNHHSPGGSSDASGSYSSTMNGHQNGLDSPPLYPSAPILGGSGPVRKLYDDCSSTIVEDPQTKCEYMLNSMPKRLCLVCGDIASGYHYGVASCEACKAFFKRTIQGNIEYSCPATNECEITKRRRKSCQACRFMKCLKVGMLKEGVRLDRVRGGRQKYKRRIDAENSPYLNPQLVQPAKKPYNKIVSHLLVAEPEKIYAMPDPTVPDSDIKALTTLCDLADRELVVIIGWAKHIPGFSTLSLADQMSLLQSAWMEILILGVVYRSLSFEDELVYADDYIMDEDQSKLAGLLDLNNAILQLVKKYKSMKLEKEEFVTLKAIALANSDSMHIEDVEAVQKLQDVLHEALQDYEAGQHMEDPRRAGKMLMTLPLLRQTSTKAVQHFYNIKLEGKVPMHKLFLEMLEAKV

ERRα = molecular target: T2, ERRα (Homo sapiens, UniProt P11474); assay: ERRE luciferase reporter assay in HEK293 cells transfected with pcDNA3.1 ERRα; format: cell-based; design: key to EC50 (ERRα): ***<1 μM; **1-5 μM; *>5 μM; i.a. (inactive); details: 24 hours treatment, luciferase activity
T2 construct: expressed in transfected cells; host or cells: HEK293
T2 sequence (P11474 1-423): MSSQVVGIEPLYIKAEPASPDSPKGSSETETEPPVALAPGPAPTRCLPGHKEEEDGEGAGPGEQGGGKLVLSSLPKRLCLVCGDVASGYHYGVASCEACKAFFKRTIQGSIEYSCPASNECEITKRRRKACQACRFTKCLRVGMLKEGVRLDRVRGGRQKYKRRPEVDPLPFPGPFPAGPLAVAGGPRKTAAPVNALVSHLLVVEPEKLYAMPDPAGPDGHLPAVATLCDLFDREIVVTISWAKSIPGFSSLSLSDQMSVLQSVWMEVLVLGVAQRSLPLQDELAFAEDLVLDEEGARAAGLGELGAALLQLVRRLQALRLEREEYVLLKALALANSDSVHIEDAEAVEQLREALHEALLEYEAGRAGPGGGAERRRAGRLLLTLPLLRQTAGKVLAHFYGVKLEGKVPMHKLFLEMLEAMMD

Structure (SMILES) | EC50 (ERRγ) [µM] | EC50 (ERRα) [µM] | EC50 (ERRγ) (ERRγ) | EC50 (ERRα) (ERRα)
Oc1ccccc1C1CC(c2ccccc2F)=NN1 (stereo not drawn) [Entry 54, 2-(3-(2-Fluorophenyl)-4,5-dihydro-1H-pyrazol-5-yl)phenol] | > 5 | 1 to 5 |  | 
Oc1c(F)cccc1C1CC(c2ccc(Br)cc2)=NN1 (stereo not drawn) [Entry 32, 2-(3-(4-Bromophenyl)-4,5-dihydro-1H-pyrazol-5-yl)-6-fluorophenol] |  |  | i.a. | i.a.
Cc1ccc(C2CC(c3cc(C(F)(F)F)cc(C(F)(F)F)c3)=NN2)c(O)c1 (stereo not drawn) [Entry 65, 2-(3-(3,5-bis(trifluoromethyl)phenyl)-4,5-dihydro-1H-pyrazol-5-yl)-5-methylphenol] |  |  | i.a. | i.a.
COc1ccc(C2=NNC(c3ccccc3)C2)c(O)c1 (stereo not drawn) [Entry 52, 5-Methoxy-2-(5-phenyl-4,5-dihydro-1H-pyrazol-3-yl)phenol] | < 1 | < 1 |  | 
Oc1ccc(C2=NNC(c3ccc(Br)cc3)C2)cc1 (stereo not drawn) [Entry 89, 4-(5-(4-bromophenyl)-4,5-dihydro-1H-pyrazol-3-yl)phenol] | > 5 | > 5 |  | 
Oc1ccccc1C1=NNC(c2c[nH]cn2)C1 (stereo not drawn) [Entry 109, 2-(5-(1H-imidazol-4-yl)-4,5-dihydro-1H-pyrazol-3-yl)phenol] |  |  | i.a. | i.a.
Oc1cccc(C2CC(c3ccccc3O)=NN2)c1 (stereo not drawn) [Entry 18, 2-(5-(3-Hydroxyphenyl)-4,5-dihydro-1H-pyrazol-3-yl)phenol] | 1 to 5 | 1 to 5 |  | 
Oc1cccc(C2=NNC(c3cccc(O)c3)C2)c1 (stereo not drawn) [Entry 3, 3,3′-(4,5-dihydro-1H-pyrazole-3,5-diyl)diphenol] | 1 to 5 | 1 to 5 |  | 
FC(F)(F)c1ccc(C2=NNC(c3ccc4ccccc4c3)C2)cc1 (stereo not drawn) [Entry 72, 5-(naphthalen-2-yl)-3-(4-(trifluoromethyl)phenyl)-4,5-dihydro-1H-pyrazole] |  |  | i.a. | i.a.
Oc1cccc(C2CC(c3cccc(F)c3)=NN2)c1 (stereo not drawn) [Entry 78, 3-(3-(3-fluorophenyl)-4,5-dihydro-1H-pyrazol-5-yl)phenol] |  | 1 to 5 | i.a. | 
Oc1cccc(C2CC(c3ccc(C(F)(F)F)cc3)=NN2)c1 (stereo not drawn) [Entry 74, 3-(3-(4-(trifluoromethyl)phenyl)-4,5-dihydro-1H-pyrazol-5-yl)phenol] | 1 to 5 | 1 to 5 |  | 
Oc1ccccc1C1CC(c2ccccc2)=NN1 (stereo not drawn) [Entry 34, 2-(3-Phenyl-4,5-dihydro-1H-pyrazol-5-yl)phenol] | 1 to 5 | > 5 |  | 
Cc1cccc(C2=NNC(c3ccccc3O)C2)c1 (stereo not drawn) [Entry 23, 2-(3-(m-Tolyl)-4,5-dihydro-1H-pyrazol-5-yl)phenol] | 1 to 5 | < 1 |  | 

Results, then the molecule that gave them:

EC50 (ERRγ) [µM] | EC50 (ERRα) [µM] | EC50 (ERRγ) (ERRγ) | EC50 (ERRα) (ERRα) | Structure (SMILES)
 |  | i.a. | i.a. | Oc1ccc2cc(C3CC(c4ccc(Cl)cc4)=NN3)ccc2c1 (stereo not drawn) [Entry 98, 6-(3-(4-chlorophenyl)-4,5-dihydro-1H-pyrazol-5-yl)naphthalen-2-ol]
 |  | i.a. | i.a. | Brc1ccc(C2=NNC(c3ccc(Br)cc3)C2)cc1 (stereo not drawn) [Entry 113, 3,5-bis(4-bromophenyl)-4,5-dihydro-1H-pyrazole]
1 to 5 | 1 to 5 |  |  | Oc1ccc2cc(C3CC(c4ccccc4F)=NN3)ccc2c1 (stereo not drawn) [Entry 107, 6-(3-(2-fluorophenyl)-4,5-dihydro-1H-pyrazol-5-yl)naphthalen-2-ol]
 |  | i.a. | i.a. | Oc1cc(Br)ccc1C1CC(c2ccc(Br)cc2)=NN1 (stereo not drawn) [Entry 118, 5-bromo-2-(3-(4-bromophenyl)-4,5-dihydro-1H-pyrazol-5-yl)phenol]
 |  | i.a. | i.a. | Clc1ccc(C2=NNC(c3ccc4ccccc4c3)C2)cc1 (stereo not drawn) [Entry 104, 3-(4-chlorophenyl)-5-(naphthalen-2-yl)-4,5-dihydro-1H-pyrazole]
